Experimental data published in ChEMBL document CHEMBL1125350, “L-thymidine is phosphorylated by herpes simplex virus type 1 thymidine kinase and inhibits viral growth” (J Med Chem, 1992).

Tested on: Thymidine kinase (Human herpesvirus 1)
Settings: Human alphaherpesvirus 1

- ID50: > 1 mM
SMILES: Nc1ncnc2c1ncn2[C@H]1C[C@H](O)[C@@H](CO)O1
